According to patent US4185119A, “Antiallergic methods” (priority 1977, dated 1980):

Assays:
[1] = Acute toxicity in mice; conditions: mouse, in vivo, ip; intraperitoneal, male I.C.R. mice, survivals at one week
Protocol: Test: Acute Toxicity in Mice
A normal saline containing each of the test compound mentioned below and 0.5% carboxymethylcellulose was given intraperitoneally to male I.C.R. (Institute of Cancer Research) strain mice aged 5 weeks, weighing 33-35 g. LD50 values were calculated from the survivals of mice at one week after the administration of the test compound.

[2] = Apomorphine-like side effect (summary of side effect tests); assay type: in vivo; conditions: summary statement
From the text: (i) Rotational behavior inducing action in rats unilaterally lesioned in substantia nigra,
(ii) Gnawing behavior including action in rats, and
(iii) Vomiting-inducing action in dogs

[3] = tested on: P.C.A. reaction in Donryu strain rats; assay: Inhibition of P.C.A. reaction in Donryu strain rats, rat reaginic antiserum against egg albumin; assay type: in vivo; conditions: Donryu rat (Table 2-II)
Protocol: (a) Rat reaginic antiserum against egg albumin
A solution of egg albumin (2 mg) in B. pertussis-diphtheria-tetanus mixed vaccine (1 ml.) (made by Takeda Chemical Industries Ltd.) was mixed with an equal volume of incomplete adjuvant (made by Difco Laboratories) to give an emulsion. The emulsion was given subcutaneously in a single dose of 1 ml. divided equally (0.25 ml.) to the four foot pads of male S.D. (Sprague-Dawley) strain rats aged 8 weeks, each weighing about 300 g.
Five days after the administration, a solution of egg albumin (0.5 mg.) in B. pertussis-diphtheria-tetanus mixed vaccine (0.5 ml.) was further given intramuscularly in a single dose of 0.5 ml. divided equally (0.25 ml.) to 2 places of thigh of the same rats.
Three days after the second administration, blood samples were collected from femoral artery of the rats and allowed to stand at ambient temperature for 5 hours. The separated supernatant was centrifuged at 4° C. (10,000 r.p.m.× 1 hour). The antisera thus obtained were stored at -80° C. prior to use.
(§1) (b) Inhibitory effect on P.C.A. reaction in Donryu strain rat
(§2) The following tests were carried out in substantially the same manner as described in the above item (2)-(a).
(§3) (i) Test compound: N:methyllaurotetanine hydrochloride
(§4) Test animal: Male Donryu strain rats aged 8 weeks, weighing about 130 g.
(§5) Challenge: A normal saline (0.3 ml.) containing egg albumin (4.5 mg.) and Evans blue (1.5 mg.).
(§6) (ii) Test commpound: glaucine or boldine
(§7) Test animal: Male Donryu strain rats aged 8 weeks, weighing 140-150 g.
(§8) Challenge: the same as the above item (b)-(i).

[4] = tested on: P.C.A. reaction in Donryu strain rats; assay: Inhibition of P.C.A. reaction in Donryu strain rats, rat hyperimmune antiserum against egg albumin; assay type: in vivo; conditions: Donryu rat (Table 2-II)
Protocol: (b) Rat hyperimmune antiserum against egg albumin
A solution of egg albumin (20 mg.) in normal saline (1 ml.) was mixed with complete adjuvant (1 ml.) (made by Difco Laboratories) to given an emulsion. The emulsion was subcutaneously given in a single dose of 1 ml. divided equally (0.25 ml.) to the four pads of male S.D. strain rats aged 6 weeks, each weighing about 200 g. (The first immunization).
One week after the administration, an emulsion which was prepared by mixing a solution of egg albumin (10 mg.) in normal saline (1 ml.) with complete adjuvant (1 ml.) was further given subcutaneously (at 3 places) and intramuscularly (at 1 place) in a single dose of 1 ml. divided equally (0.25 ml.) to thigh of the same rats. (The second immunization).
Three weeks after the second administration, a solution of egg albumin (1 mg.) in normal saline (1 ml.) was further given intracutaneously in a single dose of 0.3 ml. divided equally (0.1 ml.) to 3 places of the same rats. (The third immunization).
One week after the third administration, blood samples were collected from rats and treated in substantially the same manner as described in the above item (a). The antisera thus obtained were stored at -80° C. prior to use.
Further, an inhibition test on P.C.A. reaction using the rat hyperimmuneantiserum against egg albumin was carried out in substantially the same manner as described in the above, excepting that the intravenous administration to bring about P.C.A. was carried out at 5.5 hours after the administration of the serum and antiserum. And inhibitory effect on the P.C.A. reaction was also calculated in substantially the same manner as described in the above.
as §1, §2, §3, §4, §5, §6, §7, §8

[5] = tested on: P.C.A. reaction in I.C.R. strain mice; assay: Inhibition test of P.C.A. reaction in I.C.R. strain mice, rat hyperimmune antiserum against egg albumin; assay type: in vivo; conditions: intraperitoneal, I.C.R. mouse (Table 3-II)
Protocol: (c) Inhibition test of P.C.A. reaction in I.C.R. (Institute of Cancer Research) strain mice
(i) Test compound: N-methyllaurotetanine hydrochloride
Fifteen male I.C.R. strain mice aged 7 weeks, weighing about 35 g were divided equally into 3 groups. Each of the groups was composed of 5 mice, (in case of intraperioneal administration of the test compound to the mouse, each of the groups was composed of […]).
Ten-hold diluted solution (0.05 ml.) of the rat hyperimmune antiserum against egg albumin was given intracutaneously to the depilated back of each mouse of Group I and Group II, respectively. On the other hand, a rat normal serum (0.05 ml.) was given intracutaneously to the depilated back of each mouse of Group III. Three hours after the administration, a normal saline (0.1 ml.) containing egg albumin (1.5 mg.) and Evans blue (0.5 mg.) was given intravenously to each mouse of Groups I-III in order to bring about P.C.A., respectively.
Beforehand, 3 hours and 1 hours before the admnistration to bring about P.C.A., a normal saline (0.3 ml.) containing the prescribed amount of N-methyllaurotetanine hydrochloride and carboxymethylcellulose (0.5%) was given orally or intraperitoneally to each mouse of Group I, and a normal saline (0.3 ml.) containing only carboxymethylcellulose (0.5%) was given orally or intraperitoneally to each mouse of Group II.
The procedure followed by the above, was carried out in substantially the same manner as described in the above item (2)-(a). […]

[6] = Antiallergic action (summary of tests); assay type: in vivo; conditions: summary statement
From the text: Test: Antiallergic Action
(2) Inhibition test of P.C.A. (Passive Cutaneous Anaphylaxis) reaction
(3) Inhibition test of anaphylactic asthma in guinea-pigs

[7] = cited from earlier work

| SMILES | LD50 at 168 h [1] [mg/kg] | apomorphine-like side effect [2] | Inhibitory effect on P.C.A. reaction ([3]; intraperitoneal, 66 mg/kg) [%] | Inhibitory effect on P.C.A. reaction ([4]; intraperitoneal, 66 mg/kg) [%] | Inhibitory effect on P.C.A. reaction ([5]; 30 mg/kg) [%] | antiallergic effects [6] | diuretic activity ([7]; THE MERCK INDEX EIGHTH EDITION, Page 159 (1968)) | Inhibitory effect on P.C.A. reaction ([3]; intraperitoneal, 20 mg/kg) [%] | Inhibitory effect on P.C.A. reaction ([3]; intraperitoneal, 60 mg/kg) [%] | Inhibitory effect on P.C.A. reaction ([3]; oral, 50 mg/kg) [%] | Inhibitory effect on P.C.A. reaction ([3]; oral, 100 mg/kg) [%] | Inhibitory effect on P.C.A. reaction ([3]; oral, 200 mg/kg) [%] | Inhibitory effect on P.C.A. reaction ([4]; intraperitoneal, 20 mg/kg) [%] | Inhibitory effect on P.C.A. reaction ([4]; intraperitoneal, 60 mg/kg) [%] | Inhibitory effect on P.C.A. reaction ([4]; oral, 50 mg/kg) [%] | Inhibitory effect on P.C.A. reaction ([4]; oral, 100 mg/kg) [%] | Inhibitory effect on P.C.A. reaction ([4]; oral, 200 mg/kg) [%] | Inhibitory effect on P.C.A. reaction ([5]; 10 mg/kg) [%] | adrenolytic action and antitussive properties ([7]; Chemical Abstracts Vol. 68, 94521Z (1968)) | curariform activity ([7]; Japanese Patent Publication No. 24092/1961) |
| --- | --- | --- | --- | --- | --- | --- | --- | --- | --- | --- | --- | --- | --- | --- | --- | --- | --- | --- | --- | --- |
| COc1cc2c(cc1O)C[C@H]1c3c(cc(O)c(OC)c3-2)CCN1C [Boldine, boldine] | 145 | without apomorphine-like side effect | 40 | 30 | 20 | much superior antiallergic effects | diuretic activity | – | – | – | – | – | – | – | – | – | – | – | – | – |
| COc1cc2c(cc1OC)-c1c(OC)c(OC)cc3c1[C@H](C2)N(C)CC3 [Glaucine, glaucine] | 212 | without apomorphine-like side effect | – | – | 60 | much superior antiallergic effects | – | 60 | 95 | 70 | 80 | 95 | 50 | 85 | 60 | 80 | 90 | 50 | adrenolytic action and antitussive properties | – |
| COc1cc2c(cc1O)CC1c3c(cc(OC)c(OC)c3-2)CCN1C (centres unmarked) [N-methyllaurotetanine] | – | without apomorphine-like side effect | – | – | – | much superior antiallergic effects | – | – | – | – | – | – | – | – | – | – | – | – | – | curariform activity |
